Experimental data reported in patent US20070025939A1, “cosmetic compositions containing hydroquinone and various sunscreen agents” (L'Oreal S.A., priority 2005, published 2007).

Legend:
Type in all cases: physicochemical
[1] = Discoloration of hydroquinone solutions with stabilizer in various solvents after storage; conditions: hydroquinone solutions in various solvents (ethanol absolute, 40-B, 40-2, 3A), glass vials, four weeks at 45° C., FIGS. 2A-D
Protocol: FIGS. 2A-D are photographs of containers of various compositions, each comprising 0.1% benzophenone-4 in 100 ml of various solvents, after storage for four weeks at 45° C. In another set of experiments, solutions containing […] in various solvents (as shown below) were prepared, and then stored in glass vials for four weeks at 45° C.

[2] = Discoloration of compositions associated with oxidation of hydroquinone (general statement); conditions: compositions containing hydroquinone
[3] = Discoloration of 1% hydroquinone solutions in SDA 40-2 ethanol with 0.1% stabilizer after storage; conditions: hydroquinone 1% w/w in 200-proof ethanol SDA grade 40-2, 0.1% w/w stabilizer, glass vials, 4 weeks at 45° C., FIG. 1
Protocol: FIG. 1 is a photograph of containers of various compositions, each comprising 1% hydroquinone, 0.1% of various stabilizers, in a vehicle of SDA grade 40-2 ethanol. Solutions of hydroquinone (1% w/w), in 200-proof ethanol (SDA grade 40-2, which includes brucine sulfate as a denaturant) with 0.1% w/w of various compounds, namely BHT, benzophenone-3, ascorbic acid, Tinogard HS, Tinogard TT, Tinogard Q, benzophenone-4, Tinogard TT DD and ascorbyl glucoside were prepared, and then stored in glass vials for 4 weeks at 45° C. The results of the experiments are illustrated in FIG. 1.

CC1(C)C2CCC1(CS(=O)(=O)O)C(=O)/C2=C/c1ccc(/C=C2/C(=O)C3(CS(=O)(=O)O)CCC2C3(C)C)cc1 [Mexoryl SX, tetraphthalylidene dicamphor sulfonic acid]
discoloration of the solutions [1]: substantially no discoloration
discoloration of compositions associated with oxidation of hydroquinone [2]: inhibit or reduce discoloration

COc1cc(O)c(C(=O)c2ccccc2)cc1S(=O)(=O)O [benzophenone-4, 5-Benzoyl-4-Hydroxy-2-Methoxybenzene Sulfonic Acid]
discoloration of the solution [3]: substantially no discoloration
discoloration of the solutions [1]: substantially no discoloration
discoloration of compositions associated with oxidation of hydroquinone [2]: inhibit or reduce discoloration
